Assay: in vitro
Settings: human, hela cells, % viability

Row | Compound | viability at 28.5 h, 10 µM [%]
1 | N#Cc1c(N)ncnc1-c1ccccc1 [CBK102172] | 84.2
2 | COc1cc(CNC(=O)Cn2nnc(-c3ccc(CN4CCC(C)CC4)cc3)n2)cc(OC)c1OC [CBK144170C] | 96.5
3 | C[C@@H](Nc1nc(-c2cc(C(F)(F)F)cc(C(F)(F)F)c2)cnc1N)c1ccccc1 [CBK063720] | 105
4 | CCCCCC(=O)N1CCc2cc(N3CC(CNC(C)=O)OC3=O)ccc21 (stereo not shown) [CBK007646] | 92.5
5 | COc1ccc(-c2[nH]c3ncccc3c2CN2CCCC2)cc1 [CBK285331] | 69.4
6 | O=S(=O)(c1ccc(Br)cc1)N1CCCCC1CO (stereo not shown) [CBK051127] | 116
7 | C[N+](C)(C)CCC(=O)CCC(=O)O [CBK262012I] | 102
8 | Cn1c(-c2cc(=O)c(C(=O)O)c[nH]2)n[nH]c1=O [CBK012603] | 79.6
9 | CCc1ccc(CNC(=O)NC2CCCc3c2cnn3CCO)s1 (stereo not shown) [CBK305747] | 84.4
10 | c1csc(Sc2nc3ccccc3nc2N2CCCC2)c1 [CBK115225] | 94.3
11 | CCCCCCC1N=NC(c2ccc(F)cc2)=CN1O (stereo not shown) [CBK019298] | 94.8
12 | Cc1ccc(NS(=O)(=O)N(C)C)c(C)c1 [CBK005246] | 122
13 | COc1ccccc1CN(C)CCc1ccccn1 [CBK261741G] | 87.2
14 | COc1ccc(/C=N/NC(=O)c2cc[nH]n2)cc1CSc1nc2ccccc2s1 [CBK263734] | 103
15 | Cn1cc(CCNC(=O)NC2CCN(Cc3ccccn3)CC2)cn1 [CBK305297] | 102
16 | COc1ccc(-n2ncc(CN(C)C)n2)cc1OC [CBK112862] | 101
17 | Cc1nc(Cl)c(C(=O)NCCc2ccc(S(=O)(=O)NC(=O)NC3CCCCC3)cc2)nc1C [CBK011777] | 91.3
18 | O=C(NC(=S)Nc1cccc(-c2nc3ncccc3o2)c1)c1ccc(-c2cccc([N+](=O)[O-])c2)o1 [CBK267870] | 83.4
19 | Cc1ccc(SC(C)C(=O)NCCCN2CCOCC2)cc1 (stereo not shown) [CBK268624] | 88.5
20 | O=C(O)C1CCN(c2cncc(-c3ccc(F)cc3F)n2)CC1 [CBK065899] | 95.2
21 | CCc1nc2sc(C(N)=O)c(N)c2c2c1CCCC2 [CBK131872] | 101
22 | Cc1cc(COc2ccnc(N3CCCN(CCCC#N)CC3)n2)no1 [CBK084144] | 96.8

Row | Compound | viability at 28.5 h, 10 µM [%]
23 | CCOc1ccc(Nc2ncnc3c2cnn3Cc2ccccc2)cc1 [CBK072752] | 97.8
24 | O=[N+]([O-])c1ccc(OCCO)cc1 [CBK000628] | 84.8
25 | CC(Sc1nncs1)C(=O)N1CCCc2ccccc21 (stereo not shown) [CBK304871] | 94.6
26 | CCN1CCN(c2cc(N3CCN(C(=O)COc4ccccc4F)C(C)C3)c([N+](=O)[O-])cc2F)CC1 (stereo not shown) [CBK267513] | 100
27 | COc1ccc(C(=O)COc2nc3c(C(F)(F)F)cc(C4CC4)nc3o2)cc1 [CBK269498] | 87
28 | COc1ccccc1C(=O)NCCCc1nc2ccccc2[nH]1 [CBK269837] | 87.1
29 | C=CCOc1cccc(CNc2nn[nH]n2)c1 [CBK267618] | 109
30 | CCOC(=O)N1CCC(NC(=O)N(C)C2CCN(C)C2)CC1 (stereo not shown) [CBK156027] | 102
31 | O=C1c2cccc3cccc(c23)C(=O)N1CCCSc1nnc[nH]1 [CBK268894] | 66.4
32 | CNS(=O)(=O)c1ccc(C)c(C(=O)N(C)Cc2cnn(C)c2)c1 [CBK304026] | 89.1
33 | CC1CCc2c(sc3nc(CN4CCCCC4C)[nH]c(=O)c23)C1 (stereo not shown) [CBK304975] | 89.3
34 | COc1ccc([C@@]23CC[C@@H](NC(=O)Nc4cccc(Cl)c4)C[C@@H]2CN(C)C3)cc1OC [CBK081375T] | 96.8
35 | CCC(C)(C)c1ccc(S(=O)(=O)N(C)CCC#N)cc1 [CBK043395] | 118
36 | O=C(NC1CCN(CC2(c3ccccc3)CC2)CC1)c1cc[nH]n1 [CBK285351] | 88.4
37 | Cc1cccc(CNc2nccnc2-c2cccc(N)c2)c1 [CBK038080] | 92.4
38 | CC(c1cccs1)N(C)C(=O)NC1CCCc2c1cnn2CCO (stereo not shown) [CBK306289] | 113
39 | O=[N+]([O-])c1cccc(-c2ccc(-c3nn4c(Cc5ccccc5)nnc4s3)o2)c1 [CBK267310] | 86.4
40 | COc1ccc(S(=O)(=O)N(C)CC(=O)O)cc1 [CBK287086] | 85.9
41 | COc1ccc(CNC(=O)C[C@@H]2[C@H](O)CCC3[C@]4(C)CO[C@@H](CN)O[C@@H]4CC[C@]32C)cc1 (stereo partly shown) [CBK289575] | 109
42 | COc1ccc2cc(-c3cc(C(=O)O)c4ccccc4n3)ccc2c1 [CBK296093] | 88.4
43 | Cc1ccc(CN(CCCn2ccnc2)Cc2nccn2C)s1 [CBK283137] | 91.8
44 | CCC(=O)N1C2CCC1c1cnc3cc(-c4ccco4)nn3c1C2 (stereo not shown) [CBK284384] | 92.7

Row | Compound | viability at 28.5 h, 10 µM [%]
45 | COc1ccc(CN2CCOCC2)cc1Br [CBK027346] | 80.8
46 | CCN(CC)C(=O)CCNC(=O)c1ccc2c(c1)COC(C1CCN(C(=O)OC(C)(C)C)CC1)O2 (stereo not shown) [CBK173273] | 92.2
47 | CC(=O)Nc1cccc(NC(=O)c2cc(-c3ccccn3)nc3ccc(Cl)cc23)c1 [CBK267747] | 95.1
48 | CN(Cc1nc(-c2ccncc2)no1)S(=O)(=O)c1ccc(Br)cc1 [CBK268598] | 94.6
49 | O=C(CCC1CCCC1)n1ccn(CCc2cccs2)c1=O [CBK106611] | 97.6
50 | Cc1nc2c(OCCN3C(=O)c4ccccc4C3=O)cccn2c1N(C)C(=O)C1CCCCC1 [CBK147157] | 95
51 | Cc1cc2c(s1)c1cnn(CCN3CCCC3)c(=O)c1n2C [CBK284180] | 90
52 | Cc1ccc2c(c1)N(C(=O)COc1nc3ccccc3s1)C(C)(C)c1ssc(=S)c1-2 [CBK262696] | 97.7
53 | CN(C)CCN(Cc1ccccc1)c1ccccc1 [CBK012223C] | 114
54 | COc1ccc(-c2cc(C(=O)NCc3ccc(F)cc3)cnc2-c2cccc(C)c2)cc1 [CBK036702] | 98.8
55 | Cc1oc(C(C)(C)C)cc1C(=O)NCCNc1c(Cl)cccc1[N+](=O)[O-] [CBK265032] | 119
56 | O=C(OCCC1SC(NC2CC3C=CC2C3)=NC1=O)c1cc(C(F)(F)F)cc(C(F)(F)F)c1 (stereo not shown) [CBK056857T] | 100
57 | Cc1cc(C(=O)Oc2cccc(NC3=NS(=O)(=O)c4ccccc43)c2)c2ccccc2n1 [CBK265302] | 96.5
58 | CCNC(=O)N1CC2(CCN(Cc3ccc4nsnc4c3)CC2)c2ccccc21 [CBK136968] | 102
59 | Cc1nnc2n1-c1ccc(Cl)cc1C(c1ccccc1)=NN2CCCC(=O)c1ccc(F)cc1 [CBK016076] | 86.6
60 | Cn1c(CN2CCN(S(=O)(=O)c3ccccc3)CC2)nc2cc([N+](=O)[O-])ccc21 [CBK268321] | 102
61 | CC(C)NC(=O)c1ccc(Cl)cc1 [CBK015665] | 101
62 | COc1c(C)cc(-c2ncnc(C)c2C)cc1C [CBK306884] | 67.6
63 | Cc1cc(C)n(CC(=O)N2CCNC(=O)C2c2ccccc2Cl)n1 (stereo not shown) [CBK306421] | 92.6
64 | COc1ccc(CCCC(=O)Nc2cc3ccccc3c(N3CCNCC3)n2)cc1OC [CBK028417T] | 90.3
65 | CC(C)CCn1cc(C(=O)N2CCNCC2c2cccc(Cl)c2)nn1 (stereo not shown) [CBK304115] | 91.4
66 | Cc1cc(C)cc(-c2nnc(SCCC(=O)NC(N)=O)o2)c1 [CBK295164] | 107

Row | Compound | viability at 28.5 h, 10 µM [%]
67 | COc1ccc(-n2c(SCc3nc4ccccc4[nH]3)nc3sc4c(c3c2=O)CCCC4)cc1 [CBK267558] | 100
68 | CCCCNC(=O)N(O)C1N(C)C(=S)SC1(C)C (stereo not shown) [CBK006880] | 91.2
69 | CCc1nc2c(OCCOC)cccn2c1N(CCOC)C(C)=O [CBK147845] | 97.4
70 | COC(=O)c1cccc(Oc2nc(OC)cc(OC)n2)c1 [CBK092219] | 66.1
71 | CN(C)CCCn1cnc2c1c(=O)[nH]c(=O)n2C [CBK287913] | 92.2
72 | C[C@H]1[C@@H]2[C@@H](O)C([C@H](C)C(=O)N3CCCC3)CC[C@@]2(C)CC[C@@H]1NC(=O)C1CC1 (stereo partly shown) [CBK289447] | 85
73 | Cc1ccc(-c2oncc2C(=O)N2CCC(n3c(=O)[nH]c4ccccc43)CC2)cc1 [CBK149180] | 106
74 | CS(=O)(=O)N1CC2(CCN(Cc3cc(=O)[nH]c(=O)[nH]3)CC2)c2ccccc21 [CBK126679] | 103
75 | Cn1ccnc1C(O)C1CCN(C(=O)NCCc2cccc(F)c2)CC1 (stereo not shown) [CBK304657] | 80.5
76 | COC(=O)c1sccc1NC(=O)Cc1ccccc1[N+](=O)[O-] [CBK268146] | 98.7
77 | CC(=O)N1CC(C(=O)Nc2nc3c(C)cc(C)cc3s2)C1 [CBK281372] | 95.9
78 | Cn1nc(NC(=O)c2ccco2)c2c(F)cccc21 [CBK057774] | 93.7
79 | CC1(C)[C@H](Cc2cc(COc3ccccc3)on2)C[C@@H]1NC1CCOCC1 [CBK289694] | 96.5
80 | Cc1ccc(Cl)cc1N1CCN(C(=O)COc2ccc(S(=O)(=O)Nc3ccc(F)cc3)cc2)CC1 [CBK268229] | 92.1
81 | CCC(CN1CCCC1)NC(=O)Cc1c(C)[nH]c2ccc(F)cc12 (stereo not shown) [CBK282751] | 76.4
82 | COc1ccccc1NC(=O)C1CCN(C(=O)OC(C)(C)C)CC1 [CBK296746] | 90.5
83 | CCN(Cc1ccncc1)C(=O)NCCc1ccc(OC)cc1 [CBK155149] | 94.6
84 | COc1ccc(SC(C)C(=O)N2CCN(c3ccc([N+](=O)[O-])nc3)CC2)cc1 (stereo not shown) [CBK298282] | 93.5
85 | C=CCn1cc(CN2CCc3c(nc(C)[nH]c3=O)C2)c2ccccc21 [CBK283992] | 97.5
86 | O=C(Cc1ccccc1[N+](=O)[O-])NCCCN1CCOCC1 [CBK265520] | 92

Same assay, conditions: human, hela cells, % viability, bulk resorufin, single well

Row | Compound | viability at 28.5 h, 10 µM [%]
87 | CC(C)(N)C(=O)N1CCC2(CC1)OCc1cc(-c3ccc(S(C)(=O)=O)nc3)ccc1O2 [CBK160868] | 93.3
88 | O=C(O)COCC(=O)N1CCC2(CC1)OCc1cc(F)ccc1O2 [CBK060859] | 106

Reference: article PMC12040169 (PLOS Biology, 2025)
